These results are taken from ChEMBL document CHEMBL4387730, “Discovery of a new autophagy inducer for A549 lung cancer cells” (Bioorg Med Chem, 2019).

One may read the IC50 as the concentration that inhibits the measured activity by half.

The test system of series [1] is A549. The experiment in a line: Cytotoxicity against human A549 cells assessed as reduction in viability at 0.1 to 20 uM after 24 hrs by SRB assay. It counts as functional, cell-based. In general terms: In SRB staining, fixed cells bind dye roughly in proportion to their protein.
For series [2], the system named is A549. The experiment in a line: Cytotoxicity against human A549 cells assessed as reduction in viability at 0.1 to 20 uM after 48 hrs by SRB assay. It counts as functional, cell-based.
Series [3] deals with A549. As to the kind of experiment: Cytotoxicity against human A549 cells assessed as reduction in viability after 48 hrs by SRB assay. It counts as functional, cell-based. The note with it: A549, 48 h.
Series [4] concerns A549. As to the kind of experiment: Induction of morphological changes in human A549 cells assessed as apoptotic body formation at 0.1 to 20 uM after 3 to 24 hrs by acridine orange staining based inverted phase contrast microscopic method. It counts as functional, cell-based.
For series [5], the system named is A549. The experiment in a line: Induction of necrosis in human A549 cells assessed as increase in LDH activity at 0.1 to 5 uM after 24 hrs by absorption spectrophotometric method. It counts as cell-based. As to conditions: a549, 24 h.
Series [6] relates to A549. As to the kind of experiment: Induction of necrosis in human A549 cells assessed as increase in LDH activity at 10 uM after 24 hrs by absorption spectrophotometric method. Type of series: cell-based. The note with it: a549, 24 h.
In series [7] the test system is A549. The experiment in a line: Induction of apoptosis in human A549 cells assessed as increase in Cleaved-PARP expression at 1 to 10 uM after 24 hrs by Western blot analysis. Type of series: functional, cell-based. Background: In western blotting, separated proteins are transferred to a membrane and probed.
Series [8] relates to A549. The experiment in a line: Induction of autophagy in human A549 cells assessed as accumulation of acidic vesicles at 0.05 to 20 uM after 24 hrs by acridine orange staining based fluorescence microscopic method. Type of series: functional, cell-based.
In series [9] the test system is A549. The experiment in a line: Induction of autophagy in human A549 cells assessed as increase in […] expression at 1 to 10 uM after 24 hrs by Western blot analysis. Type of series: functional, cell-based.
The test system of series [10] is A549. The experiment in a line: Induction of autophagy in human A549 cells assessed decrease in p62 expression at 1 to 10 uM after 24 hrs by Western blot analysis. It counts as functional, cell-based.
The test system of series [11] is U-87 MG. As to the kind of experiment: Induction of autophagy in human U87 cells transfected with GFP-fused LC3-II assessed as punctiform pattern of LC3-II at 1 to 10 uM after 24 hrs by laser scanning confocal microscopic method. As to conditions: U-87MG ATCC. Type of series: functional, cell-based.
Series [12] relates to A549. As to the kind of experiment: Induction of autophagic flux in human A549 cells assessed as increase in LC3-II protein level at 10 uM after 24 hrs in presence of V-ATPase inhibitor bafilomycin-A1 by Western blot analysis. It counts as functional, cell-based.
For series [13], the target named is mTORC1 (Homo sapiens) (UniProt P42345+Q8N122+Q9BVC4). As to the kind of experiment: Inhibition of mTORC1 in human A549 cells assessed as reduction in p70S6K phosphorylation at 10 uM after 3 to 24 hrs by Western blot analysis. Type of series: cell-based.
The subject of series [14] is A549. As to the kind of experiment: Inhibition of autophagy flux in human A549 assessed as increase in p62 expression at 1 to 10 uM after 24 hrs by Western blot analysis. Type of series: functional, cell-based.

Active and inactive are the calls of the source. The calls are words filed in the database; no cut-off is given here.

Sequence of mTORC1 (Homo sapiens) (Q8N122 whole entry, looked up, other chains not shown): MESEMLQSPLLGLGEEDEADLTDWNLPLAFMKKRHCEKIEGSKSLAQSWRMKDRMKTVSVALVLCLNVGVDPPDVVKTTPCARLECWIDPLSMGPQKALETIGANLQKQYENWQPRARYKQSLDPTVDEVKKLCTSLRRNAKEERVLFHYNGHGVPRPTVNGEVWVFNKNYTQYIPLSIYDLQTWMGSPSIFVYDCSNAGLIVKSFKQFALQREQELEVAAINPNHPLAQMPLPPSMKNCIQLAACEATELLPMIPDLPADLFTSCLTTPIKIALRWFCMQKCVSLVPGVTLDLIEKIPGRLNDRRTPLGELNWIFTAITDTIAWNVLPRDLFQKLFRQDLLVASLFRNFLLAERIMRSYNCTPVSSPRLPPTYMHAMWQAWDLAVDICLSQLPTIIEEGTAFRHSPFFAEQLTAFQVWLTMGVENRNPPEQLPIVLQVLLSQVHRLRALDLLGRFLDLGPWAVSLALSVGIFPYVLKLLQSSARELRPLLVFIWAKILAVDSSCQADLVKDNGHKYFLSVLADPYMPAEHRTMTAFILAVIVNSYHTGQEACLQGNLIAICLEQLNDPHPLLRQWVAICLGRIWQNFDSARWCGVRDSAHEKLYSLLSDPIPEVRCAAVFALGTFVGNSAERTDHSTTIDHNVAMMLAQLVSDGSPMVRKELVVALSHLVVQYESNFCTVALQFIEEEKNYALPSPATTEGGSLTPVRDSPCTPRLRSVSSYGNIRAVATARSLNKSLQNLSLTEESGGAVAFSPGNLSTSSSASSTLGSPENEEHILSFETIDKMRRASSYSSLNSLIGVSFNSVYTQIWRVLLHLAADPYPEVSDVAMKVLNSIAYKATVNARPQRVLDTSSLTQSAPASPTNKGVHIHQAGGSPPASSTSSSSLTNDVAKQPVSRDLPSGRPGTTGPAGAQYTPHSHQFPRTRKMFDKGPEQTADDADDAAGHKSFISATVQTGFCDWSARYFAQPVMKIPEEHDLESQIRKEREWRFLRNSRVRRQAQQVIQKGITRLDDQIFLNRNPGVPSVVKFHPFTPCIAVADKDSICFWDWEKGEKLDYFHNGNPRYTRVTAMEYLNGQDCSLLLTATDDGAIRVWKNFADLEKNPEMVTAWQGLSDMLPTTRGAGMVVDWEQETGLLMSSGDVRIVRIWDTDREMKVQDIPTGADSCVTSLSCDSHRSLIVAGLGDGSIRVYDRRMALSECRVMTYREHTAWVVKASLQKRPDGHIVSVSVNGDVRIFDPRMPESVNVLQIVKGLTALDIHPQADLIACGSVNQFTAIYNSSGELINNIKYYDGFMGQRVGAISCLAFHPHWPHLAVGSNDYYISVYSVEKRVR
Sequence of mTORC1 (Homo sapiens) (Q9BVC4 whole entry, looked up, other chains not shown): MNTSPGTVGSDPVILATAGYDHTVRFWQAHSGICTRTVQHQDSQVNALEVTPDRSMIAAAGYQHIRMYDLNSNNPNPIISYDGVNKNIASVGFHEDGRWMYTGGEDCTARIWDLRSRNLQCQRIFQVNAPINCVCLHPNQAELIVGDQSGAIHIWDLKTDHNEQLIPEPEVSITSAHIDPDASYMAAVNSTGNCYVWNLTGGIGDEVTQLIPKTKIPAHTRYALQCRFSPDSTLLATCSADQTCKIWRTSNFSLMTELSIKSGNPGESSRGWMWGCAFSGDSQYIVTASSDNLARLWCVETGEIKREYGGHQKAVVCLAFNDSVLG

`O=Cc1ccc2c(c1)c1ccccc1n2CCCCl`: the outcome in [1] and in series [2] was inactive.

For the compound `C[N+]1=C(/C=C/c2ccc(N)cc2)C(C)(C)c2ccccc21`, the result in [1] and in series [2] was Active. Further, the IC50 in series [3] came to 3.9 µM.

For the compound `O=c1[nH]cc(F)c(=O)[nH]1` [FLUOROURACIL], the outcome in series [1] and in series [2] was Active. The IC50 in [3] is 7.1 µM.

Turning to `CCN(CC)c1ccc2ccc(=O)oc2c1`, the result in [1] and in series [2] was inactive.

In the case of `CCN(CC)C(=O)c1ccc(-c2oc3ccccc3c(=O)c2O)cc1`, the outcome in series [1] and in [2] was inactive.

Regarding `O=C1OC(=O)c2ccc(N3CCCC3)c3cccc1c23`, the outcome in series [1] and in series [2] was inactive.

Consider `Cc1cc[n+](CCCN2c3ccccc3S(=O)(=O)c3cc(C(=O)O)ccc32)cc1`, for which the result in series [1] and in series [2] was inactive.

On to `C[N+]1=C(/C=C/c2ccc(N3CCCCC3)cc2)C(C)(C)c2ccccc21.[I-]`, for which the outcome in [1], in series [2], in series [4], in [7], in series [8] and in series [9] was Active. The result in series [10] and in [12] was Active. Besides, the IC50 in series [3] was 1.1 µM. The results for the Activity result in series [5], in series [6] and in series [11] were “Non-Toxic”, “Non-Toxic” and “Dose-dependent effect”, respectively. The inhibition result in series [13] is “Active”.

On to `O=C(O)c1ccc(-c2oc3ccccc3c(=O)c2O)cc1`, for which the result in series [1] and in [2] was inactive.

Regarding `CC1(C)CC(/C=C/c2ccc(N3CCNCC3)cc2)=CC(=C(C#N)C#N)C1`, the outcome in series [1], in series [2], in series [4], in series [7], in series [8] and in [9] was Active. Also, in [3], the IC50 is 7.1 µM. For the same compound, the Activity entry in series [5] is reported as “Non-Toxic”; in series [6], “Toxic”. Also, the inhibition result in series [14] was “Active”.

Turning to `O=Cc1ccc2c(c1)c1ccccc1n2CCCN1CCNCC1`, the outcome in [1] and in series [2] was inactive.

For the compound `O=C(O)c1ccc2c(c1)S(=O)(=O)c1ccccc1N2CCCCl`, the result in [1] and in series [2] was inactive.

Take `CCN(CC)c1ccc2cc(-c3ccc(C)cc3)c(=O)oc2c1`: the result in [1] and in series [2] was inactive.

In the case of `CCN(CC)c1ccc2cc(-c3ccc(N)cc3)c(=O)oc2c1`, the result in series [1] and in series [2] was inactive.

Turning to `O=C(O)c1ccc(N2C(=O)c3cccc4cccc(c34)C2=O)cc1`, the outcome in series [1] and in series [2] was inactive.

Regarding `C[N+]1=C(/C=C/c2ccc(N3CCNCC3)cc2)C(C)(C)c2ccccc21`, the outcome in [1] and in [2] was Active. Moreover, the IC50 in series [3] stood at 13.6 µM.

`CC1=[N+](C)c2ccccc2C1(C)C`: the result in series [1] and in series [2] was inactive.
